In PubChem BioAssay AID1918932 (Molecular Pharmacology Branch, DTP, NCI, 2023) one finds viability, T/C and IC50 data, which are given here for four molecules.

The test system of this assay is 171881-019-R-J1-PDC complex spheroid viability. In words: Anticancer human tumor 171881-019-R-J1-PDC patient-derived invasive breast carcinoma cell line growth inhibition. To be noted: for viability, T/C: stronger effect = lower value. In outline: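 Drug combinations with the LSD1 inhibitor iadademstat tested on tumor cells co-cultured as spheroids with endothelial cells and mesenchymal stem cells. Concentrations descended in half-log increments from clinical Cmax or 10 microM.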

Where “and” joins values, the source holds several entries; their conditions need not be identical. Equal entries are not always repeated.
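Also: spheroids exposed to agents for 7 days after 3 days growth.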

In general, viability, T/C refers to the ratio of treated to control. Usually IC50 stands for the midpoint of a concentration-inhibition curve. As for `COc1cc(C2c3cc4c(cc3C(OC3OC5COC(C)OC5C(O)C3O)C3COC(=O)C23)OCO4)cc(OC)c1O` (stereo unspecified), the viability, T/C is, setting by setting: (compound 0.00949 µM) 97.7% and 100%; (compound 0.03 µM) 121% and 90%; (compound 0.0949 µM) 78.5% and 72.5%; (compound 0.3 µM) 51.8% and 64.3%; (compound 0.949 µM) 32.6% and 49.3%; (compound 3 µM) 17.2% and 29.7%. Moreover, the IC50 (curve of compound) was 315 nM and 775 nM.
On to `CC(C)c1c(-c2ccccc2)nc2c(C#N)c[nH]n2c1=O`, for which the viability, T/C (compound 0.0316 µM) is 95.8% and 97.3%; the viability, T/C (compound 0.1 µM) is 92.4% and 99.1%; the viability, T/C (compound 0.316 µM) was 87.7% and 97.2%; the viability, T/C (compound 1 µM) is 89.9% and 88%; the viability, T/C (compound 3.16 µM) is 94% and 67.1%; the viability, T/C (compound 10 µM) was 95.2% and 19.2%. For the setting “curve of compound”, the 50% inhibitory concentration (IC50) is > 10000 nM and 4750 nM.
Turning to `NS(=O)(=O)OCC1CC(n2ccc3c(NC4CCc5ccccc54)ncnc32)CC1O` (stereo unspecified) + NC1CC1c1ccc(-c2cccc(O)c2)cc1, the half-inhibitory concentration (IC50) runs as follows: (curve of first compound, second compound 0.1 µM) 10.3 nM; (curve of first compound, second compound 0.316 µM) 11.3 nM; (curve of first compound, second compound 1 µM) 10.1 nM; (curve of first compound, second compound 3.16 µM) 12.8 nM; (curve of first compound, second compound 10 µM) less than 9.49 nM. The viability, T/C by setting is: (second compound 0.1 µM, first compound 0.00949 µM) 51.1%; (second compound 0.1 µM, first compound 0.03 µM) 36.4%; (second compound 0.1 µM, first compound 0.0949 µM) 26.7%; (second compound 0.1 µM, first compound 0.3 µM) 27.4%; (second compound 0.1 µM, first compound 0.949 µM) 27.1%; (second compound 0.1 µM, first compound 3 µM) 23.3%. Moreover, the viability, T/C was 52.9% (second compound 0.316 µM, first compound 0.00949 µM); 36.4% (second compound 0.316 µM, first compound 0.03 µM); 31.3% (second compound 0.316 µM, first compound 0.0949 µM); 28.1% (second compound 0.316 µM, first compound 0.3 µM); 31.8% (second compound 0.316 µM, first compound 0.949 µM); 21.4% (second compound 0.316 µM, first compound 3 µM). The viability, T/C reads like this: (second compound 1 µM, first compound 0.00949 µM) 51.3%; (second compound 1 µM, first compound 0.03 µM) 27.4%; (second compound 1 µM, first compound 0.0949 µM) 27.8%; (second compound 1 µM, first compound 0.3 µM) 30%; (second compound 1 µM, first compound 0.949 µM) 27.5%; (second compound 1 µM, first compound 3 µM) 21.9%. Moreover, the viability, T/C was 56.5% (second compound 3.16 µM, first compound 0.00949 µM); 31.2% (second compound 3.16 µM, first compound 0.03 µM); 26% (second compound 3.16 µM, first compound 0.0949 µM); 24.1% (second compound 3.16 µM, first compound 0.3 µM); 26.9% (second compound 3.16 µM, first compound 0.949 µM); 21.1% (second compound 3.16 µM, first compound 3 µM). Further, the viability, T/C is, setting by setting: (second compound 10 µM, first compound 0.00949 µM) 45.1%; (second compound 10 µM, first compound 0.03 µM) 30.6%; (second compound 10 µM, first compound 0.0949 µM) 27.1%; (second compound 10 µM, first compound 0.3 µM) 27.6%; (second compound 10 µM, first compound 0.949 µM) 25.4%; (second compound 10 µM, first compound 3 µM) 19.5%.
Turning to `CC1(C)CCC(CN2CCN(c3ccc(C(=O)NS(=O)(=O)c4ccc(NCC5CCOCC5)c([N+](=O)[O-])c4)c(Oc4cnc5[nH]ccc5c4)c3)CC2)=C(c2ccc(Cl)cc2)C1`, the viability, T/C is 93.7% and 93.8% (compound 0.0316 µM); 87% and 96.2% (compound 0.1 µM); 93% and 86.7% (compound 0.316 µM); 77% and 58.6% (compound 1 µM); 37.4% and 21.2% (compound 3.16 µM); 3.33% and 4.05% (compound 10 µM). Also, the IC50 (curve of compound) is 2200 nM and 1310 nM.
